# Reference: US20260193264A1, “BENZOYPARAZINE PYRAZINES AND THEIR USES” (FOGHORN THERAPEUTICS INC., priority 2022, published 2026)
# Assays:
# [1] = molecular target: T1, HiBit-BRG1 fusion protein in stable HeLa cell line expressing HiBit-BRG1 and LgBit (Homo sapiens, UniProt P51532); assay: HiBiT-BRG1 cell-based degradation assay (Nano-Glo HiBiT, 24 h); details: HeLa HiBit-BRG1/LgBit cells; for DC50: read-out: BRMG1 HiBit Degradation IC50; for Dmax: top dose 30 μM, read-out: BRG1 HiBit Degradation Maximum (%)
# T1 construct: expressed in transfected cells
# Method in brief: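 Stable HeLa line co-expressing HiBiT-BRG1 and LgBiT, compound-treated 24 h; luminescence read after Nano-Glo HiBiT lytic reagent. % degradation normalised between DMSO (high control) and 2 μM reference BRM/BRG1 degrader (low control).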
# [2] = molecular target: T2, HiBiT-BRM fusion protein in stable HeLa cell line (Homo sapiens, UniProt P51531); assay: HiBiT-BRM cell-based degradation assay (Nano-Glo HiBiT Lytic Detection, 24 h); set-up: DC50: scale not given here; details: HeLa HiBiT-BRM cells; for DC50: read-out: BRM HiBit Degradation IC50; for BRM HiBit Degradation Maximum (%): top dose 30 μM
# T2 construct: expressed in transfected cells
# Method in brief: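 Luminescence from HiBiT/LgBiT complementation after lysis reports remaining HiBiT-BRM in stable HeLa cells exposed to compound for 24 h. Dosing used 3-fold serial dilutions, 10 points, 30 μM top final concentration. DMSO and a 2 μM BRM/BRG1 degrader standard defined 0% and 100% degradation.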
# T2 sequence (P51531 whole entry, the tested form may be a part): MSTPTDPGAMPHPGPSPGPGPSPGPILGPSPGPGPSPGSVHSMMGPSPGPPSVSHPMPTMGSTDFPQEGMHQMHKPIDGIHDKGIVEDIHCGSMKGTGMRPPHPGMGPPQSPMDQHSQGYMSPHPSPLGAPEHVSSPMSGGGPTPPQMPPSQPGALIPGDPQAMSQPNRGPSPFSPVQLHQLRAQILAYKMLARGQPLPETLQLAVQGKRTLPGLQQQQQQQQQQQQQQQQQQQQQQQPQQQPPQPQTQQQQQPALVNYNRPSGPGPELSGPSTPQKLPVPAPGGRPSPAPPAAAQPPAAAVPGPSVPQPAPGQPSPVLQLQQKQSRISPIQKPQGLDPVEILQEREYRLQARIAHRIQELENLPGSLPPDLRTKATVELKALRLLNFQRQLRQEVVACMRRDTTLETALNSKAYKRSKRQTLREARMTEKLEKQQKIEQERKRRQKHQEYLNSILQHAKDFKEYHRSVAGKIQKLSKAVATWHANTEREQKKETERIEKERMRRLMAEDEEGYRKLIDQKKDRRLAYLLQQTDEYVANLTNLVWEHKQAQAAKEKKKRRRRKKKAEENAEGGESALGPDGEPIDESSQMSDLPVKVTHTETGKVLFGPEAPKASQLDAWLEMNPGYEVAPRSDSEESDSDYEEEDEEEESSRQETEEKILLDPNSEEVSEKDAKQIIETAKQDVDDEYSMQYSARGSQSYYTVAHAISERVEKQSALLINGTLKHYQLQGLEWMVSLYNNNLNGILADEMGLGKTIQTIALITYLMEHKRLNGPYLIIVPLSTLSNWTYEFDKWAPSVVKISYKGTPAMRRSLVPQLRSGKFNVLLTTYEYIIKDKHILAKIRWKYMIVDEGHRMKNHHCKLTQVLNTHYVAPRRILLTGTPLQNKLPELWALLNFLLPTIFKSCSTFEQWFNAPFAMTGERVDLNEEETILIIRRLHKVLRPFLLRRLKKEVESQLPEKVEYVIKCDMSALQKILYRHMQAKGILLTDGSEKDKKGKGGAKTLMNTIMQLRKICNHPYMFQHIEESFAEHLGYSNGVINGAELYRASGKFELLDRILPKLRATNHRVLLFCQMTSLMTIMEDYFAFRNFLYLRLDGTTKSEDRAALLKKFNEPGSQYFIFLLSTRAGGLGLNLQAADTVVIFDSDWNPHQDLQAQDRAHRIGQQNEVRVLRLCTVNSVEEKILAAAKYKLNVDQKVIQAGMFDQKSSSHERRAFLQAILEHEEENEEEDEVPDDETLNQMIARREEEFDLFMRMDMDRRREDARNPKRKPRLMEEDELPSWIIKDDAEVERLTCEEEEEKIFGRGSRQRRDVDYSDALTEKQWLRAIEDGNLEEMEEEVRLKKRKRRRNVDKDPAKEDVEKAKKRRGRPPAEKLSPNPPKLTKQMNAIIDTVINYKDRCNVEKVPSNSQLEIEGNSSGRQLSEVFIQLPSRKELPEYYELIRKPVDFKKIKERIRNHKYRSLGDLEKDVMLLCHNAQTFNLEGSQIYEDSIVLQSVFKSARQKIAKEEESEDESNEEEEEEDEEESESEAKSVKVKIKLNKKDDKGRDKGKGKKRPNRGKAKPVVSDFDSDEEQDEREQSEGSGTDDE
# T1 sequence (P51532 whole entry, the tested form may be a part): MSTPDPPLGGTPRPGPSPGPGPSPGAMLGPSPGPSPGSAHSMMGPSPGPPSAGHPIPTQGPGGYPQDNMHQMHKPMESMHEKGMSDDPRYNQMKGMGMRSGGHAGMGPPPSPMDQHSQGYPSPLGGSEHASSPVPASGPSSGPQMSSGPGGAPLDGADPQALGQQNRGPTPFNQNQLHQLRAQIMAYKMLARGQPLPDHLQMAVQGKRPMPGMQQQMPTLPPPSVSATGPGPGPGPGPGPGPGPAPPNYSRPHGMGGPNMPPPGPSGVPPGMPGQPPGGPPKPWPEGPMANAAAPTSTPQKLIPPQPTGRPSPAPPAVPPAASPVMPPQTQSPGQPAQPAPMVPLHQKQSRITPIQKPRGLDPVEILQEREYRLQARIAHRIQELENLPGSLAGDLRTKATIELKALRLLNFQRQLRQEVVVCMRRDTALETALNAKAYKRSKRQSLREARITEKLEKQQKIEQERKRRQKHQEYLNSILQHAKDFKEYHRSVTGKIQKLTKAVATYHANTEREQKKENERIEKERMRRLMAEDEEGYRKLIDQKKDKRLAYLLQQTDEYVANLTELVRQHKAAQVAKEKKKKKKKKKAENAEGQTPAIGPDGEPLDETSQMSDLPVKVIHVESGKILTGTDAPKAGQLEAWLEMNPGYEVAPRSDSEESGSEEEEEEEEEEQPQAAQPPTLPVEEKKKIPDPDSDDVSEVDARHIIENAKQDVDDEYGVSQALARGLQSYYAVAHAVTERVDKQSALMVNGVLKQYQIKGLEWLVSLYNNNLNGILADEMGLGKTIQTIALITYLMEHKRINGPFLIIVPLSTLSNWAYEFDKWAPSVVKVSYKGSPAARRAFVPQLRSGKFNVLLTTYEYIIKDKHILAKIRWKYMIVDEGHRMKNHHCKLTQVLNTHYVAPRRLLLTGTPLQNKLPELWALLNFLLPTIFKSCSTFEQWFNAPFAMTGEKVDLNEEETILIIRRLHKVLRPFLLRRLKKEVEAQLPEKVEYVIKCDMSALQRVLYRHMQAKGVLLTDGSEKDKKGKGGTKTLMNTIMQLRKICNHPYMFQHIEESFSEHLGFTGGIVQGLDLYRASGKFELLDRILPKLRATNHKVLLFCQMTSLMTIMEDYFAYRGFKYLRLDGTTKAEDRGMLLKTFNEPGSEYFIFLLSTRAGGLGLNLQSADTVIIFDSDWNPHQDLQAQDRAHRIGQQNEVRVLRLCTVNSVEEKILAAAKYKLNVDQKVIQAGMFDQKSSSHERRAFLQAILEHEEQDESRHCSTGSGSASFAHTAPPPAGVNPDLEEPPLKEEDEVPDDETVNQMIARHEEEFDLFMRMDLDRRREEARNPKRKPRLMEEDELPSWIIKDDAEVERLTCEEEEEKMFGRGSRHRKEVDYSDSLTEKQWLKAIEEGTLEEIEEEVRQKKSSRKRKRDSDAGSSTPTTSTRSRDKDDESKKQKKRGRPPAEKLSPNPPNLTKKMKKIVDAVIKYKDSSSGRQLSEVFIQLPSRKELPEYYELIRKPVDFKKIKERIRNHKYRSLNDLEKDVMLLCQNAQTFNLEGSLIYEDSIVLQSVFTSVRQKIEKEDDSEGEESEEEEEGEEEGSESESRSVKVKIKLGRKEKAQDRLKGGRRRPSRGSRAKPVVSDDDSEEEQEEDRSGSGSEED
Structure (SMILES),DC50 [1] [nM],Dmax [1] [%],DC50 [2] [nM],BRM HiBit Degradation Maximum (%) [2]
"Cc1ncsc1-c1ccc([C@H](C)NC(=O)[C@@H]2C[C@@H](O)CN2C(=O)C(C(C)C)n2cc(N3CCC4(CC3)CCN4c3ccc4cc(-c5ccccc5O)nnc4c3)nn2)cc1 (stereo partly drawn) [Compound 234, (2S,4R)-4-hydroxy-1-(2-(4-(1-(3-(2-hydroxyphenyl)cinnolin-7-yl)-1,7-diazaspiro[3.5]nonan-7-yl)-1H-1,2,3-triazol-1-yl)-3-methylbutanoyl)-N-((S)-1-(4-(4-methylthiazol-5-yl)phenyl)ethyl)pyrrolidine-2-carboxamide]",> 10,> 50,< 10,A (“A” indicates maximum degradation ≥75%)
"Cc1ncsc1-c1ccc([C@H](C)NC(=O)[C@@H]2C[C@@H](O)CN2C(=O)C(C(C)C)n2cc(N3CCC(C4CN(c5ccc6cc(-c7ccccc7O)nnc6c5)C4)C3)nn2)cc1 (stereo partly drawn) [Compound 235, (2S,4R)-4-hydroxy-1-(2-(4-(3-(1-(3-(2-hydroxyphenyl)cinnolin-7-yl)azetidin-3-yl)pyrrolidin-1-yl)-1H-1,2,3-triazol-1-yl)-3-methylbutanoyl)-N-((S)-1-(4-(4-methylthiazol-5-yl)phenyl)ethyl)pyrrolidine-2-carboxamide]",> 10,> 75,< 10,A (“A” indicates maximum degradation ≥75%)
"C#Cc1cc2cc(-c3ccccc3O)nnc2cc1N1CC2(CN(c3cc([C@H](C(=O)N4C[C@H](O)C[C@H]4C(=O)N[C@@H](C)c4ccc(-c5scnc5C)cc4)C(C)C)on3)C2)C1 [Compound 239, (2S,4R)-1-((R)-2-(3-(6-(6-ethynyl-3-(2-hydroxyphenyl)cinnolin-7-yl)-2,6-diazaspiro[3.3]heptan-2-yl)isoxazol-5-yl)-3-methylbutanoyl)-4-hydroxy-N-((S)-1-(4-(4-methylthiazol-5-yl)phenyl)ethyl)pyrrolidine-2-carboxamide]",> 10,> 50,< 10,A (“A” indicates maximum degradation ≥75%)
"C#Cc1cc(N2CC3(C2)CN(c2cc([C@H](C(=O)N4C[C@H](O)C[C@H]4C(=O)N[C@@H](C)c4ccc(-c5scnc5C)cc4)C(C)C)on2)C3)cc2nnc(-c3ccccc3O)cc12 [Compound 240, (2S,4R)-1-((R)-2-(3-(6-(5-ethynyl-3-(2-hydroxyphenyl)cinnolin-7-yl)-2,6-diazaspiro[3.3]heptan-2-yl)isoxazol-5-yl)-3-methylbutanoyl)-4-hydroxy-N-((S)-1-(4-(4-methylthiazol-5-yl)phenyl)ethyl)pyrrolidine-2-carboxamide]",,< 50,< 10,A (“A” indicates maximum degradation ≥75%)
"Cc1ncsc1-c1ccc([C@H](C)NC(=O)[C@@H]2C[C@@H](O)CN2C(=O)[C@@H](c2cc(-c3cnc(N4CC5(CN(c6ccc7nnc(-c8ccccc8O)cc7c6)C5)C4)nc3)no2)C(C)C)cc1 [Compound 243, (2S,4R)-4-hydroxy-1-((R)-2-(3-(2-(6-(3-(2-hydroxyphenyl)cinnolin-6-yl)-2,6-diazaspiro[3.3]heptan-2-yl)pyrimidin-5-yl)isoxazol-5-yl)-3-methylbutanoyl)-N-((S)-1-(4-(4-methylthiazol-5-yl)phenyl)ethyl)pyrrolidine-2-carboxamide]",< 10,> 75,< 10,A (“A” indicates maximum degradation ≥75%)
"Cc1ncsc1-c1ccc([C@H](C)NC(=O)[C@@H]2C[C@@H](O)CN2C(=O)[C@@H](c2cc(N3CCC(N4CC5(CN(Cc6ccc7cc(-c8ccccc8O)nnc7c6)C5)C4)CC3)no2)C(C)C)cc1 [Compound 244, (2S,4R)-4-hydroxy-1-((R)-2-(3-(4-(6-((3-(2-hydroxyphenyl)cinnolin-7-yl)methyl)-2,6-diazaspiro[3.3]heptan-2-yl)piperidin-1-yl)isoxazol-5-yl)-3-methylbutanoyl)-N-((S)-1-(4-(4-methylthiazol-5-yl)phenyl)ethyl)pyrrolidine-2-carboxamide]",,< 50,> 100,B (“B” indicates maximum degradation ≥50%)

# Second part, led by results:
DC50 [1] [nM],Dmax [1] [%],DC50 [2] [nM],Structure (SMILES),BRM HiBit Degradation Maximum (%) [2]
< 10,> 75,< 10,"Cc1ncsc1-c1ccc([C@H](C)NC(=O)[C@@H]2C[C@@H](O)CN2C(=O)C(C(C)C)n2cc(N3CCC4(CCN(c5ccc6cc(-c7ccccc7O)nnc6c5)CC4)C3)nn2)cc1 (stereo partly drawn) [Compound 233, (2S,4R)-4-hydroxy-1-(2-(4-(8-(3-(2-hydroxyphenyl)cinnolin-7-yl)-2,8-diazaspiro[4.5]decan-2-yl)-1H-1,2,3-triazol-1-yl)-3-methylbutanoyl)-N-((S)-1-(4-(4-methylthiazol-5-yl)phenyl)ethyl)pyrrolidine-2-carboxamide]",A (“A” indicates maximum degradation ≥75%)
,< 50,> 10,"CC(C)[C@@H](C(=O)N1C[C@H](O)C[C@H]1C(=O)N[C@@H](C)c1ccc(F)cc1)c1cc(N2CC3(C2)CN(c2cc4nnc(-c5ccccc5O)cc4cc2C(F)F)C3)no1 [Compound 236, (2S,4R)-1-((R)-2-(3-(6-(6-(difluoromethyl)-3-(2-hydroxyphenyl)cinnolin-7-yl)-2,6-diazaspiro[3.3]heptan-2-yl)isoxazol-5-yl)-3-methylbutanoyl)-N-((S)-1-(4-fluorophenyl)ethyl)-4-hydroxypyrrolidine-2-carboxamide]",A (“A” indicates maximum degradation ≥75%)
< 10,> 75,< 10,"CCOc1cc2cc(-c3ccccc3O)nnc2cc1N1CC2(CN(c3cc([C@H](C(=O)N4C[C@H](O)C[C@H]4C(=O)N[C@@H](C)c4ccc(-c5scnc5C)cc4)C(C)C)on3)C2)C1 [Compound 237, (2S,4R)-1-((R)-2-(3-(6-(6-ethoxy-3-(2-hydroxyphenyl)cinnolin-7-yl)-2,6-diazaspiro[3.3]heptan-2-yl)isoxazol-5-yl)-3-methylbutanoyl)-4-hydroxy-N-((S)-1-(4-(4-methylthiazol-5-yl)phenyl)ethyl)pyrrolidine-2-carboxamide]",A (“A” indicates maximum degradation ≥75%)
,< 50,< 10,"C#Cc1ccc(CNC(=O)[C@@H]2C[C@@H](O)CN2C(=O)[C@H](C(C)C)n2cc(N3CC4(CN(c5ccc6cc(-c7ccccc7O)nnc6c5)C4)C3)nn2)c(OC)c1 [Compound 238, (2S,4R)-N-(4-ethynyl-2-methoxybenzyl)-4-hydroxy-1-((S)-2-(4-(6-(3-(2-hydroxyphenyl)cinnolin-7-yl)-2,6-diazaspiro[3.3]heptan-2-yl)-1H-1,2,3-triazol-1-yl)-3-methylbutanoyl)pyrrolidine-2-carboxamide]",A (“A” indicates maximum degradation ≥75%)
< 10,> 75,< 10,"C#Cc1cc2nnc(-c3ccccc3O)cc2cc1N1CC2(CN(c3cc([C@H](C(=O)N4C[C@H](O)C[C@H]4C(=O)N[C@@H](C)c4ccc(-c5scnc5C)cc4)C(C)C)on3)C2)C1 [Compound 241, (2S,4R)-1-((R)-2-(3-(6-(7-ethynyl-3-(2-hydroxyphenyl)cinnolin-6-yl)-2,6-diazaspiro[3.3]heptan-2-yl)isoxazol-5-yl)-3-methylbutanoyl)-4-hydroxy-N-((S)-1-(4-(4-methylthiazol-5-yl)phenyl)ethyl)pyrrolidine-2-carboxamide]",A (“A” indicates maximum degradation ≥75%)
< 10,> 50,< 10,"C#Cc1ccc(CNC(=O)[C@@H]2C[C@@H](O)CN2C(=O)[C@H](C(C)C)n2cc(N3CC4(CN(c5ccc6cc(-c7ccccc7O)nnc6c5)C4)C3)nn2)c(OCCCOC)c1 [Compound 242, (2S,4R)-N-(4-ethynyl-2-(3-methoxypropoxy)benzyl)-4-hydroxy-1-((S)-2-(4-(6-(3-(2-hydroxyphenyl)cinnolin-7-yl)-2,6-diazaspiro[3.3]heptan-2-yl)-1H-1,2,3-triazol-1-yl)-3-methylbutanoyl)pyrrolidine-2-carboxamide]",A (“A” indicates maximum degradation ≥75%)
,< 50,> 10,"Cc1ncsc1-c1ccc([C@H](C)NC(=O)[C@@H]2C[C@@H](O)CN2C(=O)[C@@H](c2cc(N3CC4(CN(Cc5ccc6nnc(-c7ccccc7O)cc6c5)C4)C3)no2)C(C)C)cc1 [Compound 245, (2S,4R)-4-hydroxy-1-((R)-2-(3-(6-((3-(2-hydroxyphenyl)cinnolin-6-yl)methyl)-2,6-diazaspiro[3.3]heptan-2-yl)isoxazol-5-yl)-3-methylbutanoyl)-N-((S)-1-(4-(4-methylthiazol-5-yl)phenyl)ethyl)pyrrolidine-2-carboxamide]",B (“B” indicates maximum degradation ≥50%)
,< 50,< 10,"Cc1ncsc1-c1ccc([C@H](C)NC(=O)[C@@H]2C[C@@H](O)CN2C(=O)[C@@H](c2cc(N3CC4(CN(c5ccc6cc(-c7cccc(F)c7O)nnc6c5)C4)C3)no2)C(C)C)cc1 [Compound 246, (2S,4R)-1-((R)-2-(3-(6-(3-(3-fluoro-2-hydroxyphenyl)cinnolin-7-yl)-2,6-diazaspiro[3.3]heptan-2-yl)isoxazol-5-yl)-3-methylbutanoyl)-4-hydroxy-N-((S)-1-(4-(4-methylthiazol-5-yl)phenyl)ethyl)pyrrolidine-2-carboxamide]",A (“A” indicates maximum degradation ≥75%)
